Data taken from article PMC12028158, “Synthesis and In Vitro Evaluation of the Anticancer Effect of Novel Phosphonium Vindoline Derivatives” (International Journal of Molecular Sciences, 2025).
Read-outs that look alike come from different tables or passages of the source.

How the values were obtained:
Assay type in all cases: cell-based
U251 = experiment: NCI60 five-dose screen; conditions: Homo sapiens, U-251
SR = experiment: NCI60 five-dose screen; conditions: Homo sapiens
786-0 = experiment: NCI60 one-dose screen; conditions: Homo sapiens, 786-0, read-out: Growth percent
K-562 [1] = experiment: NCI60 one-dose screen; conditions: Homo sapiens, K562, read-out: Growth percent
A498 = experiment: NCI60 one-dose screen; conditions: Homo sapiens, A498, read-out: Growth percent
BT-549 = experiment: NCI60 five-dose screen; conditions: Homo sapiens, BT-549
NCI-H226 = experiment: NCI60 five-dose screen; conditions: Homo sapiens, NCI-H226
UACC-257 = experiment: NCI60 one-dose screen; conditions: Homo sapiens, UACC-257, read-out: Growth percent
SNB-75 = experiment: NCI60 one-dose screen; conditions: Homo sapiens, SNB-75, read-out: Growth percent
M14 = experiment: NCI60 five-dose screen; conditions: Homo sapiens, M14
NCI/ADR-RES = experiment: NCI60 five-dose screen; conditions: Homo sapiens
SN12C = experiment: NCI60 five-dose screen; conditions: Homo sapiens
CAKI-1 = experiment: NCI60 five-dose screen; conditions: Homo sapiens, CAKI-1
A549/ATCC [2] = experiment: NCI60 one-dose screen; conditions: Homo sapiens, A549, read-out: Growth percent
MDA-MB-231/ATCC = experiment: NCI60 one-dose screen; conditions: Homo sapiens, MDA-MB-231, read-out: Growth percent
UACC-62 = experiment: NCI60 one-dose screen; conditions: Homo sapiens, UACC-62, read-out: Growth percent
TK-10 = experiment: NCI60 one-dose screen; conditions: Homo sapiens, TK-10, read-out: Growth percent
OVCAR-5 = experiment: NCI60 five-dose screen; conditions: Homo sapiens, OVCAR-5
HOP-92 = experiment: NCI60 one-dose screen; conditions: Homo sapiens, HOP-92, read-out: Growth percent
HS 578T [3] = experiment: NCI60 five-dose screen; conditions: Homo sapiens, Hs-578T
NCI-H322M = experiment: NCI60 five-dose screen; conditions: Homo sapiens
HS 578T [4] = experiment: NCI60 one-dose screen; conditions: Homo sapiens, Hs-578T, read-out: Growth percent
SF-268 = experiment: NCI60 five-dose screen; conditions: Homo sapiens, SF-268
PC-3 = experiment: NCI60 one-dose screen; conditions: Homo sapiens, PC-3, read-out: Growth percent
[5] = system: 60 human tumor cell lines (NCI60); experiment: NCI60 five-dose screen, overall mean
K-562 [6] = experiment: NCI60 five-dose screen; conditions: Homo sapiens, K562
CCRF-CEM = experiment: NCI60 one-dose screen; conditions: Homo sapiens, read-out: Growth percent
SK-OV-3 = experiment: NCI60 one-dose screen; conditions: Homo sapiens, SK-OV-3, read-out: Growth percent
MDA-MB-468 = experiment: NCI60 one-dose screen; conditions: Homo sapiens, MDA-MB-468, read-out: Growth percent
T-47D = experiment: NCI60 one-dose screen; conditions: Homo sapiens, T47D, read-out: Growth percent
MOLT-4 = experiment: NCI60 one-dose screen; conditions: Homo sapiens, MOLT-4, read-out: Growth percent
HCC-2998 = experiment: NCI60 five-dose screen; conditions: Homo sapiens, HCC 2998
COLO 205 = experiment: NCI60 five-dose screen; conditions: Homo sapiens, COLO 205
A549/ATCC [7] = experiment: NCI60 five-dose screen; conditions: Homo sapiens, A549
[8] = 60 cell, read-out: Mean GI50, mean over all 60 cell lines
[9] = read-out: GI50 Mean, mean over all 60 human cancer cell lines

Structure (SMILES) | GI50 (U251) [nM] | GI50 (SR) [nM] | activity at 10 µM (786-0) [%] | activity at 10 µM (K-562 [1]) [%] | activity at 10 µM (A498) [%] | GI50 (BT-549) [nM] | GI50 (NCI-H226) [nM] | activity at 10 µM (UACC-257) [%] | activity at 10 µM (SNB-75) [%] | GI50 (M14) [nM] | GI50 (NCI/ADR-RES) [nM] | GI50 (SN12C) [nM] | GI50 (CAKI-1) [nM] | activity at 10 µM (A549/ATCC [2]) [%] | activity at 10 µM (MDA-MB-231/ATCC) [%] | activity at 10 µM (UACC-62) [%] | activity at 10 µM (TK-10) [%] | GI50 (OVCAR-5) [nM] | activity at 10 µM (HOP-92) [%] | GI50 (HS 578T [3]) [nM] | also measured
CC[C@]12C=CCN3CC[C@@]4(c5ccc(OC)cc5N(C)[C@H]4[C@@](O)(C(=O)OC)[C@@H]1OC(=O)CCCC[P+](c1ccc(C)cc1)(c1ccc(C)cc1)c1ccc(C)cc1)[C@@H]32 [10a] | 470 | 360 | -91 | 0.8 | -90.9 | 763 | 1430 | -95 | -87.6 | 1110 | 12000 | 619 | 7460 | -92.2 | -97.2 | -97.4 | -91.2 | 1440 | -77.9 | 1200 | GI50 (NCI-H322M): 2670 nM; activity at 10 µM (HS 578T [4]): -69.9%; GI50 (SF-268): 1170 nM; activity at 10 µM (PC-3): -73.2%; GI50 [5, 8]: < 3000 nM; GI50 [5, 9]: 1230 nM; GI50 (K-562 [6]): 654 nM; activity at 10 µM (CCRF-CEM): -72.4%; activity at 10 µM (SK-OV-3): -82.3%; activity at 10 µM (MDA-MB-468): -92.5%; activity at 10 µM (T-47D): -64.5%; activity at 10 µM (MOLT-4): -25%; GI50 (HCC-2998): 520 nM; GI50 (COLO 205): 200 nM; GI50 (A549/ATCC [7]): 819 nM
CC[C@]12C=CCN3CC[C@@]4(c5ccc(OC)cc5N(C)[C@H]4[C@@](O)(C(=O)OC)[C@@H]1OC(=O)CCCC[P+](c1ccc(OC)cc1)(c1ccc(OC)cc1)c1ccc(OC)cc1)[C@@H]32 [10b] | 392 | 428 | -92.9 | 1.01 | -54.7 | 1250 | 2030 | -93.4 | -95.4 | 1200 | 20500 | 1180 | 15200 | -83.7 | -97.4 | -95.2 | -88.2 | 2130 | -74.5 | 1510 | GI50 (NCI-H322M): 2790 nM; activity at 10 µM (HS 578T [4]): -67.5%; GI50 (SF-268): 1470 nM; activity at 10 µM (PC-3): -37.2%; GI50 [5, 8]: < 3000 nM; GI50 [5, 9]: 2200 nM; GI50 (K-562 [6]): 675 nM; activity at 10 µM (CCRF-CEM): -59.1%; activity at 10 µM (SK-OV-3): -82.5%; activity at 10 µM (MDA-MB-468): -92.7%; activity at 10 µM (T-47D): -46.6%; activity at 10 µM (MOLT-4): -26.2%; GI50 (HCC-2998): 617 nM; GI50 (COLO 205): 214 nM; GI50 (A549/ATCC [7]): 1650 nM
